The values below come from US20250197407A1 (Jazz Pharmaceuticals Ireland Limited, priority 2022, published 2025).

The target of the test is SOS1/KRAS WT (Homo sapiens (Human), UniProt Q07889). As to the kind of experiment: SOS1/KRAS WT HTRF binding assay (FRET-based protein-protein interaction). The conditions noted are these: inhibition of His6-SOS1 (aa564-1049, 40 nM) binding to GST-KRAS-WT (aa1-188, 40 nM); at least two independent replicates; read-out: SOS1/KRAS WT HTRF Binding assay pIC50 (converted). From the text: The capacity of compounds to inhibit SOS1 binding to KRAS-WT (wild-type) was quantified using a FRET-based protein-protein interaction assay. The assay is based on the transfer of energy between two fluorophores, a donor and an acceptor, when in close proximity. In this instance, the donor is a Europium-conjugated α-GST antibody that binds to GST-tagged KRAS-WT, and the acceptor is an XL665-conjugated α-His 6 antibody that binds to His 6-tagged SOS1. Binding of SOS1 to KRAS-WT results in an increased fluorescent signal at emission wavelength of 665 nm which can be detected on the EnVision plate reader. Compounds that inhibit binding will reduce the 665 nm signal emitted. Recombinant KRAS-WT protein (40 nM; Human KRAS, aa1-188 recombinant protein with N-terminal GST-tag) and SOS1 protein (40 nM; Human SOS1 exchange domain, aa564-1049 with N-terminal 6His-tag) were mixed together in assay buffer (5 mM HEPES pH7.3, 150 mM NaCl, 10 mM EDTA, 5 mM MgCl2, 0.05% BSA, 0.0025% NP-40, 1 mM DTT and 100 mM KF) and incubated at room temperature with a dose response of compound in a 384-well low volume white plate and a final volume of 5 ul. After a 60 minute incubation, 5 ul of 4 nM anti-GST-Eu(K) (Cisbio, France) combined with 20 nM anti-6His-XL665 (Cisbio, France), diluted in assay buffer, was added to the plate. Following a further 4 hr incubation at room temperature, time-resolved fluorescence was measured on the EnVision plate reader. DMSO (0.05%) and 10 μM reference compound were used to generate the Max and Min assay signals, respectively. Data was analysed using a four-parameter logistic model to calculate IC50 values, with at least two independent replicates performed for each compound.
Sequence of SOS1/KRAS WT (Q07889 564-1049): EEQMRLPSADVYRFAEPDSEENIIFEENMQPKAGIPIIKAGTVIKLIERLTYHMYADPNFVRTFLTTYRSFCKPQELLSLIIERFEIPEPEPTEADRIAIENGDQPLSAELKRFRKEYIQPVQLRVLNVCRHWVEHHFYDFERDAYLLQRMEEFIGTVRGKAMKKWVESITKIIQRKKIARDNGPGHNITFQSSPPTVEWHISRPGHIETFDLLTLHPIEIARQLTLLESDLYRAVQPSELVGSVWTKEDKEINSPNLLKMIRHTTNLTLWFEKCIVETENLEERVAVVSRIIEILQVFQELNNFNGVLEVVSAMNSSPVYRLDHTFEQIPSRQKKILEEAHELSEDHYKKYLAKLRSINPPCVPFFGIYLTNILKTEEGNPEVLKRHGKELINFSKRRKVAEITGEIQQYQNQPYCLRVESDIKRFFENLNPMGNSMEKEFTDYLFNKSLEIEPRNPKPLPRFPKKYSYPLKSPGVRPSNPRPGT
Data was analyzed using a four-parameter logistic model to calculate IC50 values, with at least two independent replicates performed for each compound.
With `Cc1nnc(N[C@H](C)c2cccc3[nH]ncc23)c2cc3c(cc12)n(C)c(=O)n3C` [Compound 60, 5-[[(1R)-1-(1H-indazol-4-yl)ethyl]amino]-1,3,8-trimethyl-imidazo[4,5-g]phthalazin-2-one], the IC50 is 209 nM.

On to `Cc1nnc(N[C@H](C)c2cccc(C(F)F)c2F)c2cc3c(cc12)n(C)c(=O)n3C1CC1` [Compound 34, 3-cyclopropyl-1,8-dimethyl-5-[[(1R)-1-[3-(difluoromethyl)-2-fluoro-phenyl]ethyl]amino]imidazo[4,5-g]phthalazin-2-one], for which the IC50 was 9.77 nM.

Turning to `Cc1c([C@@H](C)Nc2nnc(C)c3cc4c(cc23)C2(CCOCC2)C(=O)N4C)cccc1C(F)(F)C(C)(C)O` [Compound 131, 1,8-dimethyl-5-[[(1R)-1-[3-(1,1-difluoro-2-hydroxy-2-methyl-propyl)-2-methyl-phenyl]ethyl]amino]spiro[pyrrolo [3,2-g]phthalazine-3,4′-tetrahydropyran]-2-one], the IC50 was 7.94 nM.

Regarding `COCC1(C)C(=O)N(C)c2cc3c(N[C@H](C)c4cccc(C(F)(F)C(C)(C)O)c4F)nnc(C)c3cc21` (stereo partly drawn) [Compound 86, D8-[[(1R)-1-[3-(1,1-difluoro-2-hydroxy-2-methyl-propyl)-2-fluoro-phenyl]ethyl]amino]-3-(methoxymethyl)-1,3,5-trimethyl-pyrrolo[3,2-g]phthalazin-2-one], the IC50 is 10.2 nM.

Take `Cc1nnc(N[C@H](C)c2cccc(C(F)(F)CO)c2F)c2cc3c(cc12)C(C)(C)C(=O)N3C` [Compound 109, 1,3,3,5-tetramethyl-8-[[(1R)-1-[3-(1,1-difluoro-2-hydroxy-ethyl)-2-fluoro-phenyl]ethyl]amino]pyrrolo[2,3-g]phthalazin-2-one]: the IC50 was 7.08 nM.

On to `Cc1nnc(N[C@H](C)c2cccc(C(F)(F)CO)c2F)c2cc3c(cc12)n(C)c(=O)n3C(C)(C)C` [Compound 26, 3-tert-butyl-1,8-dimethyl-5-[[(1R)-1-[3-(1,1-difluoro-2-hydroxy-ethyl)-2-fluoro-phenyl]ethyl]amino]imidazo[4,5-g]phthalazin-2-one], for which the IC50 was 14.5 nM.

Consider `Cc1nnc(N[C@H](C)c2cccc(C(F)(F)CN)c2F)c2cc3c(cc12)n(C)c(=O)n3C(C)(C)C` [Compound 53, 3-tert-butyl-1,8-dimethyl-5-[[(1R)-1-[3-(2-amino-1,1-difluoro-ethyl)-2-fluoro-phenyl]ethyl]amino]imidazo[4,5-g]phthalazin-2-one], for which the IC50 was 5.01 nM.

Consider `Cc1nnc(N[C@H](C)c2cccc(C(F)(F)CO)c2)c2cc3c(cc12)n(C)c(=O)n3C(C)C` [Compound 14, 3-isopropyl-1,8-dimethyl-5-[[(1R)-1-[3-(1,1-difluoro-2-hydroxy-ethyl)phenyl]ethyl]amino]imidazo [4,5-g]phthalazin-2-one], for which the IC50 was 7.59 nM.

Consider `COC1(C)C(=O)N(C)c2cc3c(N[C@H](C)c4cccc(C(F)(F)CO)c4C)nnc(C)c3cc21` (stereo partly shown) [Compound 92], for which the IC50 is 9.77 nM.

As to `COC1(C)C(=O)N(C2CC2)c2cc3c(N[C@H](C)c4cccc(C(F)(F)CO)c4C)nnc(C)c3cc21` (stereo partly drawn) [Compound 143, 1-cyclopropyl-3-methoxy-3,5-dimethyl-8-[[(1R)-1-[3-(1,1-difluoro-2-hydroxy-ethyl)-2-methyl-phenyl]ethyl]amino]pyrrolo[2,3-g]phthalazin-2-one], the IC50 is 11 nM.

As for `Cc1nnc(N[C@H](C)c2cccc(C(F)(F)F)c2)c2cc3c(cc12)OCCC(=O)N3C` [Compound 42, 5,10-dimethyl-7-[[(1R)-1-[3-(trifluoromethyl)phenyl]ethyl]amino]-2,3-dihydropyridazino[4,5-h][1,5]benzoxazepin-4-one], the IC50 was 34.7 nM.

Regarding `Cc1nnc(N[C@H](C)c2cccc(C(F)(F)F)c2)c2cc3c(cc12)n(C)c(=O)n3C1CCOC1` (stereo partly drawn) [Compound 144, 1,8-dimethyl-3-tetrahydrofuran-3-yl-5-[[(1R)-1-[3-(trifluoromethyl)phenyl]ethyl]amino]imidazo[4,5-g]phthalazin-2-one], the IC50 is 11.7 nM.

On to `Cc1nnc(N[C@H](C)c2cccc(C(F)(F)CN)c2F)c2cc3c(cc12)n(C)c(=O)n3C` [Compound 41, 1,3,8-trimethyl-5-[[(1R)-1-[3-(2-amino-1,1-difluoro-ethyl)-2-fluoro-phenyl]ethyl]amino]imidazo[4,5-g]phthalazin-2-one], for which the IC50 was 16.2 nM.

With `COCC1(C)C(=O)N(C)c2cc3c(N[C@H](C)c4cccc(C(F)(F)CO)c4F)nnc(C)c3cc21` (stereo partly drawn) [Compound 94, 8-[[(1R)-1-[3-(1,1-difluoro-2-hydroxy-ethyl)-2-fluoro-phenyl]ethyl]amino]-3-(methoxymethyl)-1,3,5-trimethyl-pyrrolo[3,2-g]phthalazin-2-one], the IC50 was 8.91 nM.

As for `CCC1(OC)C(=O)N(C)c2cc3c(C)nnc(N[C@H](C)c4cccc(C(F)(F)CO)c4)c3cc21` (stereo partly drawn) [Compound 196, 5-[[(1R)-1-[3-(1,1-difluoro-2-hydroxy-ethyl)phenyl]ethyl]amino]-3-ethyl-3-methoxy-1,8-dimethyl-pyrrolo[2,3-g]phthalazin-2-one], the IC50 was 25.1 nM.

As to `Cc1nnc(N[C@H](C)c2cc(F)cc(C(F)(F)CO)c2)c2cc3c(cc12)C(C)(C)C(=O)N3C` [Compound 107, 1,3,3,5-tetramethyl-8-[[(1R)-1-[3-(1,1-difluoro-2-hydroxy-ethyl)-5-fluoro-phenyl]ethyl]amino]pyrrolo[2,3-g]phthalazin-2-one], the IC50 is 18.6 nM.

For `Cc1nnc(N[C@H](C)c2cccc(C(F)(F)F)c2)c2cc3c(cc12)C(C)(C)C(=O)N3C` [Compound 32, 1,3,3,5-tetramethyl-8-[[(1R)-1-[3-(trifluoromethyl)phenyl]ethyl]amino] pyrrolo[2,3-g]phthalazin-2-one], the IC50 is 10.7 nM.

For the molecule `CCOC1(C)C(=O)N(C2CC2)c2cc3c(N[C@H](C)c4cccc(C(F)(F)C(C)(C)O)c4F)nnc(C)c3cc21` (stereo partly drawn) [Compound 163, 1-cyclopropyl-3-ethoxy-3,5-dimethyl-8-[[(1R)-1-[3-(1,1-difluoro-2-hydroxy-2-methyl-propyl)-2-fluoro-phenyl]ethyl]amino]pyrrolo[2,3-g]phthalazin-2-one], the IC50 is 10.7 nM.

For the molecule `CCN1C(=O)C(C)(OC)c2cc3c(C)nnc(N[C@H](C)c4cccc(C(F)(F)CO)c4)c3cc21` (stereo partly drawn) [Compound 171, 1-ethyl-3-methoxy-3,5-dimethyl-8-[[(1R)-1-[3-(1,1-difluoro-2-hydroxy-ethyl)phenyl]ethyl]amino]pyrrolo [2,3-g]phthalazin-2-one], the IC50 is 9.77 nM.

On to `CCOC1(C)C(=O)N(C2CC2)c2cc3c(N[C@H](C)c4cccc(C(F)(F)C(C)(C)O)c4C)nnc(C)c3cc21` (stereo partly drawn) [Compound 166, 1-cyclopropyl-3-ethoxy-3,5-dimethyl-8-[[(1R)-1-[3-(1,1-difluoro-2-hydroxy-2-methyl-propyl)-2-methyl-phenyl]ethyl]amino]pyrrolo[2,3-g]phthalazin-2-one], for which the IC50 was 14.8 nM.

As for `COC1(C)C(=O)N(C)c2cc3c(N[C@H](C)c4cccc(C(F)(F)C(C)(C)O)c4F)nnc(C)c3cc21` (stereo partly drawn) [Compound 75, 3-methoxy-1,3,5-trimethyl-8-[[(1R)-1-[3-(1,1-difluoro-2-hydroxy-2-methyl-propyl)-2-fluoro-phenyl]ethyl]amino]pyrrolo[2,3-g]phthalazin-2-one], the IC50 was 8.71 nM.

On to `COC1(C)C(=O)N(C2CC2)c2cc3c(N[C@H](C)c4cccc(C(F)(F)C(C)(C)O)c4)nnc(C)c3cc21` (stereo partly drawn) [Compound 117, 1-cyclopropyl-3-methoxy-3,5-dimethyl-8-[[(1R)-1-[3-(1,1-difluoro-2-hydroxy-2-methyl-propyl)phenyl]ethyl]amino]pyrrolo [2,3-g]phthalazin-2-one], for which the IC50 is 9.55 nM.

As to `CCC1(OC)C(=O)N(C)c2cc3c(C)nnc(N[C@H](C)c4cccc(C(F)(F)C(C)(C)O)c4C)c3cc21` (stereo partly drawn) [Compound 191, 5-[[(1R)-1-[3-(1,1-difluoro-2-hydroxy-2-methyl-propyl)-2-methyl-phenyl]ethyl]amino]-3-ethyl-3-methoxy-1,8-dimethyl-pyrrolo[2,3-g]phthalazin-2-one], the IC50 is 23.4 nM.

For `Cc1c(C#N)cccc1[C@@H](C)Nc1nnc(C)c2cc3c(cc12)n(C(C)(C)C)c(=O)n3C` [Compound 49, 2-methyl-3-[(1R)-1-[(3-tert-butyl-1,8-dimethyl-2-oxo-imidazo[4,5-g]phthalazin-5-yl)amino]ethyl]benzonitrile], the IC50 is 11.2 nM.

As for `Cc1nnc(N[C@H](C)c2cccc(C(F)(F)F)c2)c2cc3c(cc12)n(C1CC1)c(=O)n3C` [Compound 56, 1-cyclopropyl-3,8-dimethyl-5-[[(1R)-1-[3-(trifluoromethyl)phenyl]ethyl]amino] imidazo[4,5-g]phthalazin-2-one], the IC50 is 11.5 nM.
